Experimental data taken from patent US8501955B2, “Acetamide derivatives as glucokinase activators, their process and medicinal application” (Advinus Therapeutics Private Limited, priority 2007, dated 2013).

Biological target: T1, purified human recombinant GK (Homo sapiens, UniProt P35557)
T1 sequence (P35557 1-465): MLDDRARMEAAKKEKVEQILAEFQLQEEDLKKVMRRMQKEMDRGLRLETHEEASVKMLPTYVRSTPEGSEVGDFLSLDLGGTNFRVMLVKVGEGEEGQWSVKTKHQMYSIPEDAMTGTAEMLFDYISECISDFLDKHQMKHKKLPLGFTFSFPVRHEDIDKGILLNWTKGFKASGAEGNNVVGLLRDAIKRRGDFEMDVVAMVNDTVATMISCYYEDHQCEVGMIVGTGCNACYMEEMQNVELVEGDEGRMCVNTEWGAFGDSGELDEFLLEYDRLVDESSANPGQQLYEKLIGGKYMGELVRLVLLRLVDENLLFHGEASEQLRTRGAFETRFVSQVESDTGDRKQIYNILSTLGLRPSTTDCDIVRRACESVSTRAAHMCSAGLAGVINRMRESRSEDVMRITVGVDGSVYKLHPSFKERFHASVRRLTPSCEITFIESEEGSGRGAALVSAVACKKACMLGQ
Experiment: Glucokinase activity assay (coupled enzymatic GK/G6PD assay, NADH absorbance at 340 nm)
Type: biochemical
Conditions: for EC50: EC50 of % change in S0.5 of glucokinase for glucose, sigmoidal fit, read-out: EC50 (with respect to % ΔS0.5); for Emax: Emax of % change in S0.5, vehicle S0.5 = 0%, 0 mM glucose = 100%, read-out: % Emax (with respect to % ΔS0.5)
From the text: The glucokinase (GK) assay is a coupled enzymatic assay. GK catalyzes the first step of glycolysis, the conversion of glucose to glucose-6-phosphate (G6P) in the presence of ATP. G6P in turn is converted by glucose-6-phosphate dehydrogenase (G6PD) to 6-phosphogluconate, a process that requires NAD, resulting in NADH formation. Since the GK-catalyzed step is the rate-limiting step of this coupled enzymatic process, the rate of accumulation of 6-phosphogluconate and NADH is directly proportional to the rate of glucose phosphorylation by GK. The rate of the GK-catalyzed reaction can therefore be measured by monitoring the increase in NADH absorbance at 340 nm.
The assay is carried out according to the protocol outlined in Hariharan et al (1997), Diabetes 46: 11-16. Briefly, the test compounds are incubated in a reaction mix containing 25 mM HEPES (pH 7.2), 10 mM MgCl2, 100 mM KCl, 5 mM ATP, 2 mM DTT, 0.5 mM NAD, 1 U/ml Leuconostoc mesenteroides G6PD, 0.3 U/ml of purified human recombinant GK, and different concentrations of glucose. Enzymatic activity is calculated from the initial reaction velocity, measured from the change in NADH absorbance as a function of time.
Compounds described in formula (I), in concentration ranges from 1.0 nM to […] are tested in the purified human recombinant glucokinase assay described above.
A compound is considered to be a glucokinase activator if it, in its testable range of concentrations, yields a higher rate of glucose phosphorylation than in its absence at a particular glucose concentration, for example at 5 mM glucose.
Compounds of general formula (I) are tested in the in vitro GK enzymatic assay to monitor dose-dependent effect on glucokinase activation (in kinetic mode), as described above, at various glucose concentrations. The S0.5 of glucokinase for glucose at different concentration of each compound of interest is calculated from the following modified version of the Michaelis-Menten equation, V=Vmax[S]^n/(S0.5^n+[S]^n), where [S] is the glucose concentration and n is the Hill coefficient (taken as 1.7 to account for the sigmoidal kinetics of glucokinase with respect to glucose). The S0.5 is plotted against the log of the compound concentration. The change in the S0.5 of glucokinase (ΔS0.5) for glucose is calculated by subtracting the S0.5 at each concentration of the compound from the S0.5 in the vehicle control. The ΔS0.5 is then normalized to a percent scale, where the S0.5 in the vehicle control is set to 0% and 0 mM glucose is set to 100%. The % ΔS0.5 is then plotted against the log of the compound concentration. The EC50 and Emax of % change in S0.5 is obtained from the sigmoidal fit of the data. Detailed protocol has been described in our copending application no. WO 2008/104994 which is incorporated herein by reference. Characterization data of some representative glucokinase activators of the present disclosure, which are illustrative but not limiting, are given in table 1 below.

Row | SMILES | EC50 [nM] | Emax [%]
1 | O=C(O)c1ccc(Oc2cnc(NC(=O)C(O[C@@H]3CCOC3)c3ccc(S(=O)(=O)C4CC4)cc3)s2)cc1 (single isomer, unassigned) [Example H9A] | 22 | 
2 | O=C(Nc1ncc(Oc2ccc(C(=O)N3CCC3)cc2)s1)C(Oc1ccc(F)cc1F)c1ccc(S(=O)(=O)C2CC2)cc1 (single isomer, unassigned; (+)) [Example H6A, (+)N-{5-[4-(Azetidine-1-carbonyl)-phenoxy]-thiazol-2-yl}-2-(4-cyclopropanesulfonyl-phenyl)-2-(2,4-difluoro-phenoxy)-acetamide] | 110 | 93
3 | O=C(O)Cc1nc(NC(=O)C(Oc2ccc(F)cc2F)c2ccc(S(=O)(=O)N3CCCCC3)cc2)sc1Cl (single isomer, unassigned; (-)) [Example H3A, (−) (5-Chloro-2-{2-(2,4-difluoro-phenoxy)-2-[4-(piperidine-1-sulfonyl)-phenyl]-acetylamino}-thiazol-4-yl)-acetic acid] | 430 | 90
4 | O=C(Nc1ncc(Cl)s1)C(Oc1ccc(F)cc1F)c1ccc(S(=O)(=O)C2CC2)cc1 (stereo not shown) [Example A2, N-(5-Chlorothiazol-2-yl)-2-(4-cyclopropanesulfonylphenyl)-2-(2,4-difluorophenoxy)acetamide] | 130 | 95
5 | O=C(Nc1ncc(F)s1)C(Oc1ccc(F)cc1F)c1ccc(S(=O)(=O)C2CCCC2)cc1 (stereo not shown) [Example A11, 2-(4-Cyclopentanesulfonylphenyl)-2-(2,4-difluorophenoxy)-N-(5-fluoro-thiazol-2-yl)acetamide] | 110 | 95
6 | O=C(Nc1nccs1)C(Oc1ccc(Cl)cc1)c1ccc(S(=O)(=O)C2CCCC2)cc1 (stereo not shown) [Example A12, 2-(4-Chlorophenoxy)-2-(4-cyclopentanesulfonylphenyl)-N-thiazol-2-yl-acetamide] | 170 | 90
7 | O=C(Nc1nncs1)C(Oc1ccc(F)cc1F)c1ccc(S(=O)(=O)C2CC2)cc1 (stereo not shown) [Example A16, 2-(4-Cyclopropanesulfonylphenyl)-2-(2,4-difluorophenoxy)-N-[1,3,4]thiadiazol-2-yl-acetamide] | 7100 | 90
8 | O=C(Nc1nncs1)C(Oc1ccc(F)cc1F)c1ccc(S(=O)(=O)C2CCCC2)cc1 (stereo not shown) [Example A27, 2-(4-Cyclopentanesulfonylphenyl)-2-(2,4-difluorophenoxy)-N-[1,3,4]thiadiazol-2-yl-acetamide] | 1270 | 90
9 | O=C(Nc1ncc(F)s1)C(Oc1ccc2[nH]ccc2c1)c1ccc(S(=O)(=O)C2CC2)cc1 (stereo not shown) [Example A28, 2-(4-Cyclopropanesulfonylphenyl)-N-(5-fluorothiazol-2-yl)-2-(1H-indol-5-yloxy)acetamide] | 640 | 90
10 | CC(=O)Nc1cccc(OC(C(=O)Nc2ncc(F)s2)c2ccc(S(=O)(=O)C3CC3)cc2)c1 (stereo not shown) [Example A29, 2-(3-Acetylaminophenoxy)-2-(4-cyclopropanesulfonylphenyl)-N-(5-fluoro-thiazol-2-yl)acetamide] | 590 | 90
11 | O=C(Nc1ncc(F)s1)C(Oc1ccc(F)cc1F)c1ccc(S(=O)(=O)C2CCCC2)c(Cl)c1 (stereo not shown) [Example A36, 2-(3-Chloro-4-cyclopentanesulfonylphenyl)-2-(2,4-difluorophenoxy)-N-(5-fluoro-thiazol-2-yl)acetamide] | 110 | 95
12 | O=C(Nc1cc[nH]n1)C(Oc1ccc(F)cc1F)c1ccc(S(=O)(=O)C2CCCC2)c(Cl)c1 (stereo not shown) [Example A37, 2-(3-Chloro-4-cyclopentanesulfonylphenyl)-2-(2,4-difluorophenoxy)-N-(1H-pyrazol-3-yl)acetamide] | 2000 | 90
13 | Cn1ccc(NC(=O)C(Oc2ccc(F)cc2F)c2ccc(S(=O)(=O)C3CCCC3)cc2)n1 (stereo not shown) [Example A38, 2-(4-Cyclopentanesulfonylphenyl)-2-(2,4-difluorophenoxy)-N-(1-methyl-1H-pyrazol-3-yl)acetamide] | 390 | 95
14 | O=C(Nc1ccc(Cl)cn1)C(Oc1ccc(Cl)cc1F)c1ccc(S(=O)(=O)C2CC2)cc1 (stereo not shown) [Example A41, 2-(4-Chloro-2-fluorophenoxy)-N-(5-chloropyridin-2-yl)-2-(4-cyclopropanesulfonylphenyl)-acetamide] | 460 | 90
15 | O=C(Nc1ncc(F)s1)C(Oc1ccc(Cl)cc1F)c1ccc(S(=O)(=O)C2CC2)cc1 (stereo not shown) [Example A42, 2-(4-Chloro-2-fluorophenoxy)-2-(4-cyclopropanesulfonylphenyl)-N-(5-fluorothiazol-2-yl)acetamide] | 120 | 95
16 | Cc1cnc(NC(=O)C(Oc2ccc(Cl)cc2F)c2ccc(S(=O)(=O)C3CC3)cc2)s1 (stereo not shown) [Example A43, 2-(4-Chloro-2-fluorophenoxy)-2-(4-cyclopropanesulfonylphenyl)-N-(5-methylthiazol-2-yl)acetamide] | 150 | 95
17 | O=C(Nc1cc[nH]n1)C(Oc1ccc(Cl)cc1F)c1ccc(S(=O)(=O)C2CC2)cc1 (stereo not shown) [Example A45, 2-(4-Chloro-2-fluorophenoxy)-2-(4-cyclopropanesulfonylphenyl)-N-(1H-pyrazol-3-yl)acetamide] | 1300 | 90
18 | Cn1ccc(NC(=O)C(Oc2ccc(Cl)cc2F)c2ccc(S(=O)(=O)C3CC3)cc2)n1 (stereo not shown) [Example A46, 2-(4-Chloro-2-fluorophenoxy)-2-(4-cyclopropanesulfonylphenyl)-N-(1-methyl-1H-pyrazol-3-yl)acetamide] | 1370 | 90
19 | O=C(Nc1cnccn1)C(Oc1ccc(Cl)cc1F)c1ccc(S(=O)(=O)C2CC2)cc1 (stereo not shown) [Example A47, 2-(4-Chloro-2-fluorophenoxy)-2-(4-cyclopropanesulfonylphenyl)-N-pyrazin-2-yl-acetamide] | 1200 | 90
20 | CC(C)Oc1ccc2nc(NC(=O)C(OC3CCOCC3)c3ccc(S(=O)(=O)C4CC4)cc3)sc2n1 (stereo not shown) [Example A82, 2-(4-Cyclopropanesulfonyl-phenyl)-N-(5-isopropoxy-thiazolo[5,4-b]pyridin-2-yl)-2-(tetrahydro-pyran-4-yloxy)-acetamide] | 240 | 94
21 | O=C(Nc1ncc(F)s1)C(OC1CCOCC1)c1ccc(S(=O)(=O)C2CC2)cc1 (stereo not shown) [Example A114, 2-(4-Cyclopropanesulfonyl-phenyl)-N-(5-fluoro-thiazol-2-yl)-2-(tetrahydro-pyran-4-yloxy)-acetamide] | 150 | 92
22 | N#Cc1ccc(Oc2cnc(NC(=O)C(OC3CCOCC3)c3ccc(S(=O)(=O)C4CC4)cc3)s2)cc1 (stereo not shown) [Example A117, N-[5-(4-Cyano-phenoxy)-thiazol-2-yl]-2-(4-cyclopropanesulfonyl-phenyl)-2-(tetrahydro-pyran-4-yloxy)-acetamide] | 150 | 92
23 | Cc1nc(NC(=O)C(Oc2ccc(F)cc2F)c2ccc(S(=O)(=O)C3CC3)cc2)sc1C(=O)O (stereo not shown) [Example B12, 2-[2-(4-Cyclopropanesulfonylphenyl)-2-(2,4-difluorophenoxy)acetylamino]-4-methylthiazole-5-carboxylic acid] | > 10000 | 
24 | O=C(O)Cc1csc(NC(=O)C(Oc2ccc(F)cc2F)c2ccc(S(=O)(=O)C3CCCC3)cc2)n1 (stereo not shown) [Example B14, {2-[2-(4-Cyclopentanesulfonylphenyl)-2-(2,4-difluorophenoxy)-acetylamino]-thiazol-4-yl}acetic acid] | 1600 | 90
